Calls of active or inactive are those of the source. The rule behind the calls is not given here.
Key:
[1] = target: T1, Acetylcholinesterase (Mus musculus) (UniProt P21836); test: Ex vivo inhibition of AChE in ICR mouse cortex homogenate at 2 mg/kg, ig using acetylthiocholine iodide as substrate measured after 30 to 240 mins by DTNB reagent based assay; format: functional, organism-based; details: time 30-240 min
T1 sequence (whole entry): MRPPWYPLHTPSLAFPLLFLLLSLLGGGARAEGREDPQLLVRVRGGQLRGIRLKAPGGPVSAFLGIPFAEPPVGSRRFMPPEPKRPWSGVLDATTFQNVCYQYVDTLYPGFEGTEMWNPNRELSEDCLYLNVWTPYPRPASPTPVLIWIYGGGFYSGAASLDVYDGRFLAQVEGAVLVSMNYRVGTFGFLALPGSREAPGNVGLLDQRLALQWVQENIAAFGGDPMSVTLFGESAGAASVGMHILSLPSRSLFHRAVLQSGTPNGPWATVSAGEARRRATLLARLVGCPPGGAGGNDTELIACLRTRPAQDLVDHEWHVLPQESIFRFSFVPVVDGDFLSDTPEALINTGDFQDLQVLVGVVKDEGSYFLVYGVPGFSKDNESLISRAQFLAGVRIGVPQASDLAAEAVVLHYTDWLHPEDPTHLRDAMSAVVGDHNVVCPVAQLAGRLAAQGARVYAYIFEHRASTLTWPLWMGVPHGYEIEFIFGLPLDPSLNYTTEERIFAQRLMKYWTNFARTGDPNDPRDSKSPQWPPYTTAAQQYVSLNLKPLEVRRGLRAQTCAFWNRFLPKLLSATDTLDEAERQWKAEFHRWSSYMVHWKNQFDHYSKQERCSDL

Butyrylcholinesterase = Butyrylcholinesterase (Rattus norvegicus, UniProt Q9JKC1); test: Inhibition of rat serum BuChE using S-butyrylthiocholine iodide as substrate incubated for 8 mins by Ellman's method; format: cell-free
[2] = Tmax in Sprague-Dawley rat at 0.5 mg/kg, po; format: ADME, organism-based; details: in vivo
[3] = Tmax in human plasma at 2 mg, po; format: ADME, cell-free
[4] = Cmax in Beagle dog at 0.25 mg/kg, po; format: ADME, organism-based, Canis lupus familiaris; set-up: route oral, dose 0.25 mg/kg; details: in vivo
[5] = MRT (0 to infinity) in Sprague-Dawley rat at 0.5 mg/kg, iv; format: ADME, organism-based; details: in vivo
[6] = Terminal half life in human plasma at 2 mg, po; format: ADME, cell-free; details: read-out: beta t1/2 (converted)
[7] = Terminal half life in human plasma at 8 mg, po; format: ADME, cell-free; details: read-out: beta t1/2 (converted)
[8] = Clearance in Beagle dog at 0.25 mg/kg, iv; format: ADME, organism-based, Canis lupus familiaris; details: in vivo
[9] = Volume of distribution at steady state in Sprague-Dawley rat at 0.5 mg/kg, po or iv; format: ADME, organism-based; details: in vivo, read-out: Vdss
[10] = Oral bioavailability in Beagle dog at 0.25 mg/kg; format: ADME, organism-based, Canis lupus familiaris; details: in vivo
[11] = Cmax in Sprague-Dawley rat brain at 10 mg/kg, po; format: ADME, organism-based; set-up: route oral, dose 10 mg/kg
[12] = MRT in Sprague-Dawley rat brain at 10 mg/kg, po; format: ADME, organism-based
[13] = Tmax in Sprague-Dawley rat plasma at 10 mg/kg, po; format: ADME, organism-based
[14] = AUC (0 to infinity) in Sprague-Dawley rat plasma at 10 mg/kg, po; format: ADME, organism-based; set-up: route oral, time infinity, dose 10 mg/kg
[15] = MRT in Sprague-Dawley rat plasma at 10 mg/kg, po; format: ADME, organism-based
[16] = Protein binding in rat plasma; format: ADME, cell-free; details: read-out: PPB (converted)
[17] = Permeability in human Caco-2 cells at 2 to 50 uM; format: ADME, cell-based; details: dose 2-50 µM, read-out: permeability
[18] = target: Voltage-gated inwardly rectifying potassium channel KCNH2 (Homo sapiens, UniProt Q12809); test: Inhibition of human ERG
[19] = Genotoxicity in Salmonella typhimurium TA1535 by Ames test; format: toxicity; details: salmonella enterica subsp. enterica serovar typhimurium
Mus musculus = test: Improvement in learning and spatial memory in APP/PS1 double mutant-transgenic mouse model assessed as increase in number of platform crossings at 0.5 to 1 mg/kg, po for 3 months measured during probe trial by Morris water maze test; format: functional, organism-based; details: dose 0.5-1 mg/kg
[20] = Cardiotoxicity in Beagle dog assessed as effect on QRS interval at 0.1 to 1 mg/kg; format: toxicity, organism-based, Canis lupus familiaris; details: in vivo, dose 0.1-1 mg/kg
[21] = Cardiotoxicity in Beagle dog assessed as effect on QT interval at 0.1 to 1 mg/kg; format: toxicity, organism-based, Canis lupus familiaris; details: in vivo, dose 0.1-1 mg/kg
[22] = Toxicity in Beagle dog assessed as effect on body temperature at 0.1 to 1 mg/kg; format: organism-based, Canis lupus familiaris; details: in vivo, dose 0.1-1 mg/kg
Cytochrome P450 1A2 = target: T2, Cytochrome P450 1A2 (Homo sapiens, UniProt P05177); test: Inhibition of CYP1A2 in human hepatocytes; format: ADME, cell-based, Hepatocyte
T2 sequence (P05177 whole entry): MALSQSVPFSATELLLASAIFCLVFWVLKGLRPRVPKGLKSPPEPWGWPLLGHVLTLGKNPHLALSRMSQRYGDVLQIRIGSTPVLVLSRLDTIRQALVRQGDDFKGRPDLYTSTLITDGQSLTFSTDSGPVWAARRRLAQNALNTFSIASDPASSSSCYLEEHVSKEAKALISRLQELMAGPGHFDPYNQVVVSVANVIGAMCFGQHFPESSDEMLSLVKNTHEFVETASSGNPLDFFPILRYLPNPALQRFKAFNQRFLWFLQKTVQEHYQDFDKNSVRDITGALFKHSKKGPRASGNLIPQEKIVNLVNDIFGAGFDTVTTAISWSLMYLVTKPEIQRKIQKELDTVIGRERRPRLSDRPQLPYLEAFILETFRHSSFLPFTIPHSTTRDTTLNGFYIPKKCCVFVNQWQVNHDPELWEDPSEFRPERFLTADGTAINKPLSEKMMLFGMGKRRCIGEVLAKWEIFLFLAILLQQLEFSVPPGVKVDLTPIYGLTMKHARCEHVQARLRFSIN

Cytochrome P450 2C8 = target: T3, Cytochrome P450 2C8 (Homo sapiens, UniProt P10632); test: Inhibition of CYP2C8 in human hepatocytes; format: ADME, cell-based, Hepatocyte
T3 sequence (P10632 whole entry): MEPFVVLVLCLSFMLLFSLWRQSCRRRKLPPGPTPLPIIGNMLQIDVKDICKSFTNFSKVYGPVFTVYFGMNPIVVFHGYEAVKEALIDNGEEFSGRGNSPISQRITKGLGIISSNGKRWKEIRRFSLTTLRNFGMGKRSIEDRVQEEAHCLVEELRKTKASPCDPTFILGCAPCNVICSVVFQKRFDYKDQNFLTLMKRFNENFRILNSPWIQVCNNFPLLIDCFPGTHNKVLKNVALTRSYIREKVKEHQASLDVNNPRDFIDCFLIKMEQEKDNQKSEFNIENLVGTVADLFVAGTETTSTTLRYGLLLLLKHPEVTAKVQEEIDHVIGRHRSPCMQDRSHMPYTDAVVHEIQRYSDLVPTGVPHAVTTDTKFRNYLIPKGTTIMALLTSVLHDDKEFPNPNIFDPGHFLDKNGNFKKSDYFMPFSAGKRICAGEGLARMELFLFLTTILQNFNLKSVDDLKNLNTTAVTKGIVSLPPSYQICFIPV

[23] = Toxicity in Sprague-Dawley rat assessed as animal death at upto 30 mg/kg, po for 4 weeks; format: organism-based; details: in vivo, 672 h

Sequence of Butyrylcholinesterase (Q9JKC1 whole entry): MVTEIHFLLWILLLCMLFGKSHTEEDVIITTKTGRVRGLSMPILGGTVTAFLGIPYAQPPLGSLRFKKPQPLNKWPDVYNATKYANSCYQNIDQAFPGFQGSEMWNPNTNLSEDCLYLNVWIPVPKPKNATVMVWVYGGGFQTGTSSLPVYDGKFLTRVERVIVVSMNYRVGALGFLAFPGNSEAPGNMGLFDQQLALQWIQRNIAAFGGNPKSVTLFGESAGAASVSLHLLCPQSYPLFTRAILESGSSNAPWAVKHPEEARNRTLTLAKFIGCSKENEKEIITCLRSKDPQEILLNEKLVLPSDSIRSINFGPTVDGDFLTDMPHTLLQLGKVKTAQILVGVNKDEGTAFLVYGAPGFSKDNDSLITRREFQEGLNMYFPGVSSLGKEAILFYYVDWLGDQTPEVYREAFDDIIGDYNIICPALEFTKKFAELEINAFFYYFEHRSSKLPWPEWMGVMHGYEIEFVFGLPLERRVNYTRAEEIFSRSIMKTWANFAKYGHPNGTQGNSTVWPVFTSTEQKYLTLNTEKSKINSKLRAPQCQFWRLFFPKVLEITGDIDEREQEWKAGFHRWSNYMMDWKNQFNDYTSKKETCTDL
Sequence of Voltage-gated inwardly rectifying potassium channel KCNH2 (Q12809 whole entry): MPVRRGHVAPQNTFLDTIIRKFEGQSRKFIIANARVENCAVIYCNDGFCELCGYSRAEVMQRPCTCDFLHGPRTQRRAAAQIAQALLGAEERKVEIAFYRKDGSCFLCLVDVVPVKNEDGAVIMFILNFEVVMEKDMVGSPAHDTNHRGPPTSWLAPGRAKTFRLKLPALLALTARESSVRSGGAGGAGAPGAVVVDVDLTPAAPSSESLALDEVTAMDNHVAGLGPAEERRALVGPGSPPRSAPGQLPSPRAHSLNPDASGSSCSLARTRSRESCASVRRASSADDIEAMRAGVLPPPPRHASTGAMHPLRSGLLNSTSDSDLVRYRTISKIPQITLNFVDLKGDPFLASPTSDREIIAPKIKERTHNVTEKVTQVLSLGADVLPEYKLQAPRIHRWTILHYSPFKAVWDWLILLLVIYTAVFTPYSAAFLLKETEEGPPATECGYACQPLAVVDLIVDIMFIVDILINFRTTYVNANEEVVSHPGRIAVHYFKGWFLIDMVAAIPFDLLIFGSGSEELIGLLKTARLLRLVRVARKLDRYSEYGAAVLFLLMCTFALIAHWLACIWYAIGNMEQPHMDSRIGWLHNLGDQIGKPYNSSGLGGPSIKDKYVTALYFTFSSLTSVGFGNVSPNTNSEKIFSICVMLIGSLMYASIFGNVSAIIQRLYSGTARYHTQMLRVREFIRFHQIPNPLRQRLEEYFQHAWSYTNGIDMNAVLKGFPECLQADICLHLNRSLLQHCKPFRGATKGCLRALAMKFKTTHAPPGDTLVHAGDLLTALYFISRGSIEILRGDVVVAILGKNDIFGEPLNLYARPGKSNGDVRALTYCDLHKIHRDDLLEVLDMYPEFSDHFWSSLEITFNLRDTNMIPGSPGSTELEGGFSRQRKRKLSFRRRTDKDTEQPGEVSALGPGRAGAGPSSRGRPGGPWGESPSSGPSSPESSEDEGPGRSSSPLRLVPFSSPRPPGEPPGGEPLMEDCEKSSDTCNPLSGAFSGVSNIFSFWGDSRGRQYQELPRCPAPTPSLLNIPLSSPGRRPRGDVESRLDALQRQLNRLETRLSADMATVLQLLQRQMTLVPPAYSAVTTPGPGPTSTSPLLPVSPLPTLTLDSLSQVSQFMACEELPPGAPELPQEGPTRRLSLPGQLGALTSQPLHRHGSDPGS

## COc1cc2c(cc1OC)C(=O)C(CC1(F)CCN(Cc3ccccc3F)CC1)C2 (configuration not stated)
[1]
  inhibition: Active
Butyrylcholinesterase
  IC50: 31.7 µM
[2]
  Tmax: 37.8 min
[3]
  Tmax: 1.5 h
[4]
  Cmax: 16.9 ng/mL
[5]
  MRT inf: 5.21 h
[6]
  half-life: 1240 min
[7]
  half-life: 1660 min
[8]
  clearance: 17.5 mL/min/kg
[9]
  Vd: 6.52 L/kg
[10]
  bioavailability: 61.3%
[11]
  Cmax: 831 ng/mL
[12]
  MRT: 8.9 h
[13]
  Tmax: 30 min
[14]
  AUC(0-inf): 1140 ng·h/mL
[15]
  MRT: 6.81 h
[16]
  fraction unbound: 0.031
[17]
  Papp at up to 50 µM: 0.574 ×10⁻⁶ cm/s
[18]
  IC50: 9.23 µM
[19]
  Activity: Non-Toxic
Mus musculus
  Activity: Active
[20]
  Activity: Non-Toxic
[21]
  Activity: Non-Toxic
[22]
  Activity: Non-Toxic
Cytochrome P450 1A2
  IC50: > 30 µM
Cytochrome P450 2C8
  IC50: > 30 µM
[23]
  Activity: Non-Toxic
